Experimental findings from ChEMBL document CHEMBL1135198, “Structure-activity relationships of non-imidazole H(3) receptor ligands. Part 1” (Bioorg Med Chem Lett, 2002) are described below.

One experiment deals with Histamine H1 receptor (Homo sapiens, UniProt P35367). Put plainly: Binding affinity for the human Histamine H1 Receptor.
The target in a further experiment is Histamine H3 receptor (Rattus norvegicus, UniProt Q9QYN8). Kind of experiment: Binding affinity for the rat cortical Histamine H3 receptor.
Chain of Histamine H3 receptor (Q9QYN8 whole entry): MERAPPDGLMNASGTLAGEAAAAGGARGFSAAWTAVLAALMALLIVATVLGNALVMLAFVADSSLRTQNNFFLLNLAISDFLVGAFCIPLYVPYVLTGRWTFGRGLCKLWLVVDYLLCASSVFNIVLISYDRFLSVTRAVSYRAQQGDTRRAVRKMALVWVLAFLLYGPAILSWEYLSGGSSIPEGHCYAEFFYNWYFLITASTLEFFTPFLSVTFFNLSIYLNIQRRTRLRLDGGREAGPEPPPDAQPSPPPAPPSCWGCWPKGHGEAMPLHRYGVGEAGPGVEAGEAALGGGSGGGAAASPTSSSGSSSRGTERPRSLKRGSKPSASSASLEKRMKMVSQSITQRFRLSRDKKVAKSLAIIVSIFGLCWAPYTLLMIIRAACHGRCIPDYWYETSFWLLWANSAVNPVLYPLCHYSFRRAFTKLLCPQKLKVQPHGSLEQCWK
Another experiment concerns the target Histamine H2 receptor (Homo sapiens, UniProt P25021). Kind of experiment: Binding affinity for the human Histamine H2 receptor.

Chain of Histamine H1 receptor (P35367 whole entry): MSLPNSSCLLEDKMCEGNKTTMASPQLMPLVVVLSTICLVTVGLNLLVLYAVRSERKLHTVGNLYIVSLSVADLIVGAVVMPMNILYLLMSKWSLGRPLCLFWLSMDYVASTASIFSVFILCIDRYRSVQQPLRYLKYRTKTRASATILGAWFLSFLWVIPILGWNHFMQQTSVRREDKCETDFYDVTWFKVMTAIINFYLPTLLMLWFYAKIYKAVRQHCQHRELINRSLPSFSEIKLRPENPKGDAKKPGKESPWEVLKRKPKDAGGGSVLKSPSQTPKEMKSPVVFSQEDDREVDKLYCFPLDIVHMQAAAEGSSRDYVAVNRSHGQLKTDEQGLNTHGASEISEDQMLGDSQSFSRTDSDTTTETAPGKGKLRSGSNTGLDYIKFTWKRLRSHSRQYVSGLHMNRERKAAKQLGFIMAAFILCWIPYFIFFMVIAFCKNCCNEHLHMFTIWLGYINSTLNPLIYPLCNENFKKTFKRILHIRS
Chain of Histamine H2 receptor (P25021 whole entry): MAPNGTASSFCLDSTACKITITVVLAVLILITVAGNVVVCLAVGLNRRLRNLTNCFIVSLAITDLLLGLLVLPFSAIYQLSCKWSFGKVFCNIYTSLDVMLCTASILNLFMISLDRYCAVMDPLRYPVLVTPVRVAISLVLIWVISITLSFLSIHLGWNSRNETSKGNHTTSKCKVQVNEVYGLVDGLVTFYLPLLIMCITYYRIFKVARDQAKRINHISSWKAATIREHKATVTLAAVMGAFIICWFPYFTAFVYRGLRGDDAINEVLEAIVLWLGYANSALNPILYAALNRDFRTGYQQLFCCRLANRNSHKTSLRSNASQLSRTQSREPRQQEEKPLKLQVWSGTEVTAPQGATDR

A word on the Ki: it is the dissociation constant of the complex between target and ligand, obtained from inhibition or displacement. High values mean a looser hold on the target, low ones a stronger hold on the target. For `CCOC(=O)N1CCN(CCCOc2ccc(C(=O)c3ccc(SC)cc3)cc2)CC1`, the Ki on Histamine H1 receptor was 447 nM; at Histamine H3 receptor, 58.9 nM; at Histamine H2 receptor, 6.17 µM.

Turning to `C=C(C)C(=O)c1ccc(OCCCN2CCN(C(=O)OCC)CC2)cc1`, the Ki was 977 nM at Histamine H1 receptor, 55 nM at Histamine H3 receptor and 22.4 µM at Histamine H2 receptor.

Turning to `CCCCCC(=O)c1ccc(OCCCN2CCN(C(=O)c3ccncc3)CC2)cc1`, the Ki at Histamine H1 receptor was 479 nM; at Histamine H3 receptor, 6.31 nM; on Histamine H2 receptor, 22.4 µM.

With `CCOC(=O)N1CCN(CCCOc2ccc(C(=O)/C=C/c3ccc(OC)cc3)cc2)CC1`, the results for the Ki on Histamine H1 receptor, at Histamine H3 receptor and on Histamine H2 receptor were 617 nM, 7.24 nM and 6.76 µM, respectively.

With `CCCCCC(=O)c1ccc(OCCCN2CCN(C(=O)C(C)(C)O)CC2)cc1`, the results for the Ki on Histamine H1 receptor, on Histamine H3 receptor and at Histamine H2 receptor were 21400 nM, 57.5 nM and 24.5 µM, respectively.

As for `CCCCCC(=O)c1ccc(OCCCN2CCNCC2)cc1`, the Ki is 6030 nM at Histamine H1 receptor, 26.9 nM at Histamine H3 receptor and 14.5 µM at Histamine H2 receptor.

As for `CCCCCC(=O)c1ccc(OCCCN2CCN(C(=O)C3CC3)CC2)cc1`, the Ki on Histamine H1 receptor is 1780 nM; at Histamine H3 receptor, 2.14 nM; at Histamine H2 receptor, 31.6 µM.

`CCOC(=O)N1CCN(CCCOc2ccc(C(=O)c3cccc(F)c3F)cc2)CC1`: the Ki on Histamine H1 receptor is 1020 nM; on Histamine H3 receptor, 25.1 nM; at Histamine H2 receptor, 17.4 µM.

As to `CCOC(=O)N1CCN(CCCOc2ccc(C(=O)C=C(C)C)cc2)CC1`, the results for the Ki at Histamine H1 receptor, at Histamine H3 receptor and at Histamine H2 receptor were 355 nM, 38.9 nM and 21.9 µM, respectively.

For `CCCCCC(=O)c1ccc(OCCCN2CCN(C(=O)Cc3ccccc3)CC2)cc1`, the Ki is 56.2 nM at Histamine H1 receptor, 10 nM on Histamine H3 receptor and 8.91 µM at Histamine H2 receptor.

On to `CCCCCC(=O)c1ccc(OCCCN2CCN(C(=O)c3cccnc3)CC2)cc1`, for which the Ki on Histamine H1 receptor is 724 nM; on Histamine H3 receptor it was 20.4 nM; on Histamine H2 receptor it was 60.3 µM.

Regarding `CCOC(=O)N1CCN(CCCOc2ccc(C(=O)c3ccc(OC)cc3)cc2)CC1`, the Ki at Histamine H1 receptor was 813 nM; at Histamine H3 receptor it was 39.8 nM; at Histamine H2 receptor it was 8.32 µM.

On to `CCCCCC(=O)c1ccc(OCCCN2CCN(CCC)CC2)cc1`, for which the Ki at Histamine H1 receptor is 3390 nM; at Histamine H3 receptor it was 27.5 nM; on Histamine H2 receptor it was 27.5 µM.

`CCOC(=O)N1CCN(CCCOc2ccc(C(=O)/C=C/c3cccnc3)cc2)CC1`: the Ki on Histamine H1 receptor is 427 nM; on Histamine H3 receptor it was 6.31 nM; on Histamine H2 receptor it was 25.1 µM.

In the case of `CCCCCCCC(=O)c1ccc(OCCCN2CCN(C(=O)OCC)CC2)cc1`, the Ki is 562 nM at Histamine H1 receptor, 3.72 nM at Histamine H3 receptor and 2.14 µM at Histamine H2 receptor.

`CCCCCC(=O)c1ccc(OCCCN2CCN(C(=O)c3c[nH]cn3)CC2)cc1`: the Ki at Histamine H1 receptor was 525 nM; at Histamine H3 receptor, 4.47 nM; at Histamine H2 receptor, 19.5 µM.

Take `CCCCCC(=O)c1ccc(OCCCN2CCN(CC(C)C)CC2)cc1`: the results for the Ki on Histamine H1 receptor, at Histamine H3 receptor and on Histamine H2 receptor were 457 nM, 9.33 nM and 9.55 µM, respectively.

Turning to `CCCCCC(=O)c1ccc(OCCCN2CCN(C(=O)c3ccc(C)s3)CC2)cc1`, the values for the Ki on Histamine H1 receptor, on Histamine H3 receptor and at Histamine H2 receptor were 97.7 nM, 15.8 nM and 8.13 µM, respectively.

For `CCCCCC(=O)c1ccc(OCCCN2CCN(C(=O)c3cnco3)CC2)cc1`, the Ki on Histamine H1 receptor is 4270 nM; on Histamine H3 receptor, 44.7 nM; on Histamine H2 receptor, 27.5 µM.

Take `CCCCCC(=O)c1ccc(OCCCN2CCN(C(=O)NCC)CC2)cc1`: the Ki on Histamine H1 receptor was 1580 nM; at Histamine H3 receptor, 21.4 nM; on Histamine H2 receptor, 23.4 µM.

With `CCCCCC(=O)c1ccc(OCCCN2CCN(C(=O)c3occc3C)CC2)cc1`, the values for the inhibition constant Ki at Histamine H1 receptor, on Histamine H3 receptor and on Histamine H2 receptor were 105 nM, 8.51 nM and 12.9 µM, respectively.

On to `CCCCCC(=O)c1ccc(OCCCN2CCN(C(=O)c3cnccn3)CC2)cc1`, for which the inhibitory constant (Ki) on Histamine H1 receptor is 2040 nM; at Histamine H3 receptor, 18.2 nM; at Histamine H2 receptor, 46.8 µM.

Consider `CCCCCC(=O)c1ccc(OCCCN2CCN(C(=O)c3ccco3)CC2)cc1`, for which the Ki was 398 nM at Histamine H1 receptor, 10.5 nM on Histamine H3 receptor and 20 µM at Histamine H2 receptor.

As to `CCCCCC(=O)c1ccc(OCCCN2CCN(C(=O)c3cccs3)CC2)cc1`, the Ki on Histamine H1 receptor is 74.1 nM; at Histamine H3 receptor, 16.2 nM; on Histamine H2 receptor it was 14.8 µM.

On to `CCOC(=O)N1CCN(CCCOc2ccc(C(C)=O)cc2)CC1`, for which the Ki at Histamine H1 receptor is 2240 nM; on Histamine H3 receptor, 5.01 nM; on Histamine H2 receptor, 39.8 µM.

Turning to `CCOC(=O)N1CCN(CCCOc2ccc(C(=O)C3CC3)cc2)CC1`, the Ki at Histamine H1 receptor is 1410 nM; on Histamine H3 receptor it was 4.68 nM; on Histamine H2 receptor, 79.4 µM.

Turning to `CCCCCCCCC(=O)c1ccc(OCCCN2CCN(C(=O)OCC)CC2)cc1`, the Ki was 501 nM at Histamine H1 receptor, 7.94 nM on Histamine H3 receptor and 2.69 µM at Histamine H2 receptor.

For the molecule `CCCCCC(=O)c1ccc(OCCCN2CCN(C(=O)c3ccccn3)CC2)cc1`, the Ki at Histamine H1 receptor is 417 nM; at Histamine H3 receptor it was 52.5 nM; on Histamine H2 receptor, 18.6 µM.

Regarding `CCCCCC(=O)c1ccc(OCCCN2CCN(C(=O)CSCC)CC2)cc1`, the Ki at Histamine H1 receptor is 1100 nM; at Histamine H3 receptor it was 11 nM; on Histamine H2 receptor, 22.9 µM.

As for `CCCCCC(=O)c1ccc(OCCCN2CCN(C(=O)OC(C)C)CC2)cc1`, the Ki at Histamine H1 receptor is 309 nM; at Histamine H3 receptor it was 5.01 nM; at Histamine H2 receptor, 17.8 µM.

For `CCCCCC(=O)c1ccc(OCCCN2CCN(C(=O)OCCCC)CC2)cc1`, the Ki at Histamine H1 receptor is 575 nM; at Histamine H3 receptor, 20.4 nM; at Histamine H2 receptor, 1.86 µM.

In the case of `CCCCCC(=O)c1ccc(OCCCN2CCN(C(=O)OC)CC2)cc1`, the Ki on Histamine H1 receptor is 1070 nM; on Histamine H3 receptor, 3.02 nM; on Histamine H2 receptor it was 12 µM.

For `CCCCCC(=O)c1ccc(OCCCN2CCN(C(=O)N3CCCC3)CC2)cc1`, the Ki on Histamine H1 receptor was 1050 nM; at Histamine H3 receptor, 7.41 nM; on Histamine H2 receptor, 14.8 µM.

As to `CCCCCC(=O)c1ccc(OCCCN2CCN(C(=O)NC(C)C)CC2)cc1`, the figures for the Ki at Histamine H1 receptor, on Histamine H3 receptor and at Histamine H2 receptor were 1200 nM, 9.55 nM and 11.2 µM, respectively.

`CCCCCC(=O)c1ccc(OCCCN2CCN(C(=O)OCC(C)C)CC2)cc1`: the Ki was 275 nM on Histamine H1 receptor, 10 nM on Histamine H3 receptor and 3.72 µM at Histamine H2 receptor.

Turning to `CCCCCC(=O)c1ccc(OCCCN2CCN(C(=O)c3cccn3C)CC2)cc1`, the Ki on Histamine H1 receptor is 56.2 nM; at Histamine H3 receptor, 4.07 nM; at Histamine H2 receptor it was 11.7 µM.
